14 compounds from PubChem BioAssay (NCI) can be followed below.

A word on the TGI: it is the concentration giving total growth inhibition. Lower therefore signals more potent growth arrest. What is called GI50 is the concentration giving 50% growth inhibition.

“And” between values parts separate entries of the source, which are not always exact repeats. Equal entries are not always repeated.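 All cell lines were grown in 96-well plates and treated with compound for 48 hours. GI50 = concentration required for 50% inhibition of growth. TGI denotes the concentration required for complete inhibition of growth.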

Some test systems named below: CCRF-CEM leukemia; DU-145 prostate; NCI-H460 lung; RXF 393 renal; OVCAR-5 ovarian; COLO 205 colon; U251 CNS; NCI-H23 lung; SN12C renal; SR leukemia.
What all share (assay): DTP human tumour cell line panel, 48 h

Turning to `COc1cccc2c1C(=O)c1c(O)c3c(c(O)c1C2=O)CC(O)(C(C)=O)CC3OC1CC(N)C(O)C(C)O1` (stereo not given), the total growth inhibition concentration (TGI) in the assay on CCRF-CEM leukemia worked out at 0.324 µg/mL; in the assay on DU-145 prostate it was 1.65 µg/mL; in the assay on NCI-H460 lung, 2.02 µg/mL; with RXF 393 renal it was 1.48 µg/mL; in the assay with OVCAR-5 ovarian, 3.46 µg/mL; in the assay with COLO 205 colon, 0.334 µg/mL. For the same compound, the TGI with U251 CNS is 1.84 µg/mL; in the assay with NCI-H23 lung, 0.692 µg/mL; with SN12C renal, 3.98 µg/mL; in the assay with SR leukemia, 0.152 µg/mL. Moreover, the GI50 in the assay with DU-145 prostate is 0.0208 µg/mL; with RXF 393 renal, 0.263 µg/mL; with OVCAR-5 ovarian, 0.0674 µg/mL; in the assay with COLO 205 colon, 0.114 µg/mL; in the assay with U251 CNS it was 0.0151 µg/mL; in the assay with NCI-H23 lung it was 0.0174 µg/mL. Moreover, in the assay on SN12C renal, the GI50 is 0.0177 µg/mL.

For the compound `Cc1c2cnccc2c(C)c2c1c1cc(C3OCCCO3)ccc1n2C`, the 50% growth inhibitory concentration (GI50) was 0.291 µM with CCRF-CEM leukemia; 0.371 µM in the assay with DU-145 prostate; 0.293 µM in the assay on NCI-H460 lung; 0.172 µM in the assay with RXF 393 renal; 0.436 µM in the assay with OVCAR-5 ovarian; 0.357 µM in the assay with COLO 205 colon. For the same compound, the concentration for 50% growth inhibition (GI50) in the assay on U251 CNS is 0.308 µM; in the assay with NCI-H23 lung, 0.215 µM; with SN12C renal, 0.192 µM; in the assay on SR leukemia, 0.0686 µM. The TGI in the assay with CCRF-CEM leukemia was 3.81 µM; with DU-145 prostate, 1.58 µM; in the assay with NCI-H460 lung, 1.15 µM; with RXF 393 renal, 0.921 µM; in the assay with OVCAR-5 ovarian, 3.7 µM; in the assay on COLO 205 colon, 1.75 µM. Also, the TGI with U251 CNS stood at 1.33 µM; with NCI-H23 lung, 1.21 µM; in the assay with SN12C renal, 1.3 µM; with SR leukemia, 1.43 µM.

As to `CN(C)CCCOc1ccccc1NC1=C(Cl)C(=O)C(Nc2ccccc2OCCCN(C)C)=C(Cl)C1=O`, the GI50 in the assay on CCRF-CEM leukemia was 0.262 µM; in the assay on DU-145 prostate, 0.709 µM; in the assay on NCI-H460 lung, 1.32 µM; with RXF 393 renal, 1.17 µM; with OVCAR-5 ovarian it was 1.4 µM; with COLO 205 colon, 0.194 µM. Also, the GI50 with U251 CNS is 0.611 µM; in the assay with NCI-H23 lung, 0.57 µM; in the assay with SN12C renal it was 0.165 µM; in the assay on SR leukemia it was 0.837 µM. Further, the TGI in the assay with CCRF-CEM leukemia was 1.3 µM; in the assay with DU-145 prostate, 1.77 µM; with NCI-H460 lung, 2.85 µM; with RXF 393 renal, 2.43 µM; in the assay with OVCAR-5 ovarian, 2.84 µM; with COLO 205 colon, 0.399 µM. Besides, the TGI came out at 1.3 µM in the assay on U251 CNS, 1.38 µM in the assay on NCI-H23 lung, 0.319 µM in the assay on SN12C renal and 5.47 µM in the assay with SR leukemia.

In the case of `O=C(O)CSCc1cccc2ccccc12`, the concentration for total growth inhibition (TGI) in the assay with CCRF-CEM leukemia, with DU-145 prostate, with NCI-H460 lung, in the assay on RXF 393 renal, in the assay on OVCAR-5 ovarian and with COLO 205 colon was above 100 µM throughout. Further, the TGI in the assay on U251 CNS, with NCI-H23 lung, with SN12C renal and in the assay on SR leukemia was above 100 µM each time.

With `CNC(=O)c1cc(COc2nnc(Nc3ccc(Cl)cc3)c3ccoc23)ccn1`, the GI50 is 26.9 µM and > 10 µM in the assay on CCRF-CEM leukemia; 9.43 µM and > 10 µM in the assay on DU-145 prostate; 4.21 µM and > 10 µM in the assay on NCI-H460 lung; 2.99 µM and 9.09 µM with RXF 393 renal; 12.3 µM and > 10 µM in the assay on OVCAR-5 ovarian; 20.6 µM and > 10 µM in the assay with COLO 205 colon. In addition, the GI50 in the assay on U251 CNS is 5.34 µM and 4.26 µM; in the assay with NCI-H23 lung, 11.1 µM and > 10 µM; in the assay on SN12C renal, 8.86 µM and > 10 µM; with SR leukemia it was 20.1 µM and > 10 µM. For the same compound, the TGI is above 79.5 µM with CCRF-CEM leukemia; 26 µM and > 10 µM in the assay with DU-145 prostate; 20.9 µM and > 10 µM in the assay with NCI-H460 lung; 11 µM and > 10 µM in the assay on RXF 393 renal; 38.9 µM and > 10 µM with OVCAR-5 ovarian; above 79 µM in the assay on COLO 205 colon. For the same compound, the TGI in the assay on U251 CNS is 16.8 µM and > 10 µM; in the assay with NCI-H23 lung, 37.8 µM and > 10 µM; with SN12C renal it was 27.2 µM and > 10 µM; in the assay on SR leukemia it was 83.1 µM and > 10 µM.

On to `COC1=CC(c2ccc[nH]2)=N/C1=C\c1[nH]c(C)c(C(=O)OCc2ccccc2)c1C`, for which the GI50 with CCRF-CEM leukemia was 0.0404 µM; in the assay with DU-145 prostate, 0.0917 µM; in the assay on NCI-H460 lung, 0.0476 µM; with RXF 393 renal it was 0.116 µM; in the assay with OVCAR-5 ovarian, 0.211 µM; with COLO 205 colon, 0.165 µM. Moreover, the 50% growth inhibitory concentration (GI50) was 0.0616 µM in the assay on U251 CNS, 0.141 µM in the assay with NCI-H23 lung, 0.0849 µM in the assay with SN12C renal and 0.0405 µM in the assay on SR leukemia. Besides, the concentration for total growth inhibition (TGI) was above 28.3 µM in the assay on CCRF-CEM leukemia; 1.92 µM in the assay on DU-145 prostate; 1.2 µM in the assay on NCI-H460 lung; 1.41 µM in the assay on RXF 393 renal; 1.99 µM with OVCAR-5 ovarian; 1.48 µM with COLO 205 colon. In addition, the TGI in the assay on U251 CNS was found to be 1.26 µM; in the assay on NCI-H23 lung it was 1.74 µM; with SN12C renal, 1.88 µM; with SR leukemia, 0.885 µM.

In the case of `C=C1C(=O)O[C@H]2[C@H]1CC/C(CNC(=O)/C=C/c1ccc(Br)cc1)=C\CC[C@@]1(C)O[C@@H]21`, the GI50 with CCRF-CEM leukemia is 0.354 µM; in the assay on DU-145 prostate, 0.743 µM; with NCI-H460 lung, 1.63 µM; with RXF 393 renal, 0.26 µM; in the assay on OVCAR-5 ovarian, 1.7 µM; in the assay on COLO 205 colon it was 0.987 µM. In addition, the GI50 was 1.46 µM with U251 CNS, 1.41 µM with NCI-H23 lung, 1.22 µM with SN12C renal and 0.255 µM with SR leukemia. For the same compound, the concentration for total growth inhibition (TGI) in the assay on CCRF-CEM leukemia was determined as 4.59 µM; in the assay on DU-145 prostate it was 2.02 µM; with NCI-H460 lung it was 3.3 µM; in the assay on RXF 393 renal, 1.4 µM; with OVCAR-5 ovarian it was 3.75 µM; in the assay on COLO 205 colon it was 2.75 µM. The results for the concentration for total growth inhibition (TGI) in the assay with U251 CNS, with NCI-H23 lung and with SN12C renal were 3.09 µM, 3.05 µM and 3.58 µM, respectively.

Consider `COc1cc2c(cc1OC)C13CCN4C=C5CCOC6CC(=O)N2C1C6C5CC43` (stereo not given), for which the total growth inhibition concentration (TGI) in the assay with CCRF-CEM leukemia, with DU-145 prostate, with NCI-H460 lung, in the assay with RXF 393 renal, in the assay on OVCAR-5 ovarian and in the assay on COLO 205 colon was above 100 µM each time. Besides, the total growth inhibition concentration (TGI) in the assay on U251 CNS, in the assay with NCI-H23 lung, in the assay on SN12C renal and with SR leukemia was above 100 µM throughout.

In the case of `COC(=O)[C@@H](NC(=O)NC(=O)NC(=O)CI)C(C)C`, the GI50 in the assay with DU-145 prostate was 16.4 µM; with NCI-H460 lung it was 18.9 µM; in the assay with RXF 393 renal it was 6.35 µM; in the assay with OVCAR-5 ovarian, 13.2 µM; in the assay on COLO 205 colon, 1.97 µM; with U251 CNS, 17.3 µM. For the same compound, the GI50 in the assay on NCI-H23 lung is 16.1 µM; in the assay with SN12C renal, 5.46 µM; with SR leukemia, 1.76 µM. The TGI came to 29.9 µM with DU-145 prostate; 38.2 µM with NCI-H460 lung; 18.8 µM in the assay with RXF 393 renal; 29.7 µM in the assay on OVCAR-5 ovarian; 4.01 µM in the assay with COLO 205 colon; 31.1 µM in the assay on U251 CNS. Also, the figures for the TGI in the assay on NCI-H23 lung, with SN12C renal and with SR leukemia were 33.8 µM, 25.7 µM and 5.64 µM, respectively.

In the case of `CCSc1nnc2c(-c3ccccc3)n[nH]c2n1`, the concentration for total growth inhibition (TGI) with CCRF-CEM leukemia, in the assay on DU-145 prostate, in the assay on NCI-H460 lung, in the assay on RXF 393 renal, with OVCAR-5 ovarian and with COLO 205 colon was above 100 µM in each case. Moreover, the TGI in the assay on U251 CNS, with NCI-H23 lung and in the assay with SR leukemia was above 100 µM each time.

Take `O=[As](O)(O)c1ccc(NCc2ccccc2)cc1`: the total growth inhibition concentration (TGI) with DU-145 prostate, in the assay with NCI-H460 lung, in the assay with RXF 393 renal, with OVCAR-5 ovarian, with COLO 205 colon and in the assay on U251 CNS was above 100 µM in each case. Also, the total growth inhibition concentration (TGI) with NCI-H23 lung, with SN12C renal and with SR leukemia was above 100 µM in each case.

`O=C(Nc1ccc(Cl)cc1Cl)c1ccc(NC2=C(Cl)C(=O)N(Cc3ccccc3)C2=O)cc1`: the GI50 was 1.99 µM in the assay with CCRF-CEM leukemia; 18.7 µM in the assay with DU-145 prostate; 15.8 µM in the assay on NCI-H460 lung; 17.6 µM in the assay with RXF 393 renal; 16.3 µM in the assay with COLO 205 colon; 12.2 µM in the assay on U251 CNS. The GI50 was 20.3 µM with SN12C renal and 1.35 µM in the assay with SR leukemia. In addition, the TGI in the assay on CCRF-CEM leukemia turned out to be 6.84 µM; in the assay on DU-145 prostate it was 39.4 µM; with NCI-H460 lung, 37.9 µM; in the assay with RXF 393 renal, 38.8 µM; with COLO 205 colon, 38.8 µM; in the assay on U251 CNS, 24.5 µM. Besides, the concentration for total growth inhibition (TGI) in the assay with SN12C renal was 42.8 µM; with SR leukemia it was 3.12 µM.

As to `Nc1ncnc2c1ncn2C1OC(COP(=O)(O)CP(=O)(O)O)C(O)C1O` (stereo not given), the TGI in the assay with CCRF-CEM leukemia, in the assay with DU-145 prostate, in the assay with RXF 393 renal, in the assay with OVCAR-5 ovarian, in the assay with COLO 205 colon and in the assay on U251 CNS was above 100 µM each time. In addition, the TGI with NCI-H23 lung, in the assay with SN12C renal and in the assay with SR leukemia was above 100 µM each time.

For the compound `O=S(=O)(Nc1ncccn1)c1ccc(N=Nc2ccc(O)c3ncccc23)cc1`, the GI50 in the assay on CCRF-CEM leukemia was 3.29 µM; in the assay on DU-145 prostate it was 12 µM; with NCI-H460 lung, 3.69 µM; with RXF 393 renal it was 9.95 µM; in the assay with OVCAR-5 ovarian it was 29.7 µM; in the assay with COLO 205 colon it was 26.2 µM. Besides, the GI50 with U251 CNS was 4.71 µM; in the assay on SN12C renal, 6.43 µM; with SR leukemia, 4.62 µM. The TGI with CCRF-CEM leukemia is 24.8 µM; with DU-145 prostate, above 100 µM; in the assay with NCI-H460 lung, 17.2 µM; in the assay on RXF 393 renal, 29.2 µM; in the assay with OVCAR-5 ovarian, 89.2 µM; in the assay with COLO 205 colon it was above 100 µM. Also, the values for the TGI with U251 CNS, in the assay on SN12C renal and in the assay with SR leukemia were 30.4 µM, 53.4 µM and 63 µM, respectively.
